Source: article PMC10584170, “Machine learning-based phenotypic imaging to characterise the targetable biology of Plasmodium falciparum male gametocytes for the development of transmission-blocking antimalarials” (PLOS Pathogens, 2023)
Read-outs that look alike come from different tables or passages of the source.

Legend:
[1] = test system: P. falciparum male gametocytes; assay: P. falciparum Dual Gamete Formation Assay (PfDGFA), male readout (exflagellation); assay type: cell-based, Plasmodium falciparum NF54; conditions: for Selectivity Ratio M: HepG2 Tox50 versus male IC50; for inhibition at 2 µM / Average inhibition male (%) / % inhibition male (individual replicates) R1 / % inhibition male (individual replicates) R3 / % inhibition male (individual replicates) R4: 24h preincubation with gametocytes; for IC50: PfDGFA, 24 h incubation with gametocytes before induction, exflagellation readout, read-out: Male IC50; for HitlevelM: number of replicates with >50% inhibition in the male readout
Method in brief: (§1)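 Mature NF54 gametocytes (day 14) were incubated with compound for 24 h at 37°C under 1% O2/3% CO2, then triggered with xanthurenic acid ookinete medium plus Cy3-anti-Pfs25. Exflagellation was imaged by brightfield; after a further 24 h at 28°C, Pfs25-positive female gametes were imaged by fluorescence and counted by automated image analysis.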

[2] = test system: P. falciparum female gametocytes; assay: P. falciparum Dual Gamete Formation Assay (PfDGFA), female readout (Pfs25-positive female gametes); assay type: cell-based, Plasmodium falciparum NF54; conditions: for Selectivity ratio F: HepG2 Tox50 versus female IC50; for inhibition at 2 µM / Average inhibition female (%) / % inhibition female (individual replicates) R1 / % inhibition female (individual replicates) R3 / % inhibition female (individual replicates) R4: 24h preincubation with gametocytes; for IC50: PfDGFA, 24 h incubation with gametocytes before induction, female gamete readout, read-out: Female IC50; for HitlevelF: number of replicates with >50% inhibition in the female readout
Method in brief: as §1

[3] = test system: HepG2 cells; assay: HepG2 cytotoxicity counter-screen; conditions: cytotoxic activity against HepG2 cells
[4] = Plasmodium falciparum, PfDGFA at 2µM, average of replicates, read-out: Average inhibition male (%)
[5] = Plasmodium falciparum, PfDGFA at 2µM, replicate R1, read-out: % inhibition male (individual replicates) R1
[6] = Plasmodium falciparum, PfDGFA at 2µM, replicate R2, read-out: % inhibition male (individual replicates) R2
[7] = Plasmodium falciparum, PfDGFA at 2µM, replicate R4, read-out: % inhibition male (individual replicates) R4
[8] = Plasmodium falciparum, PfDGFA at 2µM, average of replicates, read-out: Average inhibition female (%)
[9] = Plasmodium falciparum, PfDGFA at 2µM, replicate R1, read-out: % inhibition female (individual replicates) R1
[10] = Plasmodium falciparum, PfDGFA at 2µM, replicate R2, read-out: % inhibition female (individual replicates) R2
[11] = Plasmodium falciparum, PfDGFA at 2µM, replicate R3, read-out: % inhibition female (individual replicates) R3
[12] = Plasmodium falciparum, PfDGFA at 2µM, replicate R4, read-out: % inhibition female (individual replicates) R4
[13] = PfDGFA at 2µM, average of replicates
[14] = Plasmodium falciparum, 2µM, average of replicates, read-out: Average inhibition male (%)
[15] = Plasmodium falciparum, 2µM, replicate R1, read-out: % inhibition male (individual replicates) R1
[16] = Plasmodium falciparum, 2µM, replicate R2, read-out: % inhibition male (individual replicates) R2
[17] = Plasmodium falciparum, 2µM, replicate R3, read-out: % inhibition male (individual replicates) R3
[18] = Plasmodium falciparum, 2µM, replicate R4, read-out: % inhibition male (individual replicates) R4
[19] = Plasmodium falciparum, 2µM, average of replicates, read-out: Average inhibition female (%)
[20] = Plasmodium falciparum, 2µM, replicate R1, read-out: % inhibition female (individual replicates) R1
[21] = Plasmodium falciparum, 2µM, replicate R2, read-out: % inhibition female (individual replicates) R2
[22] = Plasmodium falciparum, 2µM, replicate R3, read-out: % inhibition female (individual replicates) R3
[23] = Plasmodium falciparum, 2µM, replicate R4, read-out: % inhibition female (individual replicates) R4
[24] = Plasmodium falciparum, PfDGFA at 2µM, replicate R3, read-out: % inhibition male (individual replicates) R3

Compound	IC50 ([1]; Plasmodium falciparum)	IC50 ([2]; Plasmodium falciparum)	Selectivity Ratio M [1]	HitlevelM ([1]; 2µM)	Selectivity ratio F [2]	HitlevelF ([2]; 2µM)	Tox50 [3]	IC50 [1]	inhibition at 2 µM [1, 14]	inhibition at 2 µM [1, 15]	inhibition at 2 µM [1, 16]	inhibition at 2 µM [1, 17]	inhibition at 2 µM [1, 18]	inhibition at 2 µM [2, 19]	inhibition at 2 µM [2, 20]	inhibition at 2 µM [2, 21]	inhibition at 2 µM [2, 22]	inhibition at 2 µM [2, 23]	further results
COc1ccc(-c2cnc(N)c(-c3ccc(C(N)=O)cc3)c2)cc1OC [TCMDC-133349]	280 nM	> 10000 nM	54.05	3	1.51	0	15.14 µM												inhibition at 2 µM [1, 4]: 71.3%; inhibition at 2 µM [1, 5]: 80.4%; inhibition at 2 µM [1, 6]: 82.4%; inhibition at 2 µM [1, 7]: 51.1%; inhibition at 2 µM [2, 8]: 9.1%; inhibition at 2 µM [2, 9]: 0.18%; inhibition at 2 µM [2, 10]: 11.3%; inhibition at 2 µM [2, 11]: 7.9%; inhibition at 2 µM [2, 12]: 17.1%
CNC(=O)c1ccccc1Nc1nc(Nc2ccc(CCN3CCN(C)CC3)cc2)ncc1Cl.Cl [TCMDC-133800]			5.19		0.03		0.33 µM	60 nM											Average inhibition male (%) ([1]; 2µM, average of replicates): 96.7%; % inhibition male (individual replicates) R1 ([1]; 2µM, replicate R1): 94.6%; % inhibition male (individual replicates) R3 ([1]; 2µM, replicate R3): 98.6%; % inhibition male (individual replicates) R4 ([1]; 2µM, replicate R4): 96.9%; Average inhibition female (%) ([2]; 2µM, average of replicates): 7.2%; % inhibition female (individual replicates) R1 ([2]; 2µM, replicate R1): 6.8%; % inhibition female (individual replicates) R3 ([2]; 2µM, replicate R3): -10.4%; % inhibition female (individual replicates) R4 ([2]; 2µM, replicate R4): 12.4%
CNC(=O)c1ccccc1Nc1nc(Nc2cccc(CS(C)(=O)=O)c2)ncc1C.O=CO [TCMDC-133809]			6.79		0.1		1.03 µM	150 nM											Average inhibition male (%) ([1]; 2µM, average of replicates): 90.9%; % inhibition male (individual replicates) R1 ([1]; 2µM, replicate R1): 93.6%; % inhibition male (individual replicates) R3 ([1]; 2µM, replicate R3): 92.1%; % inhibition male (individual replicates) R4 ([1]; 2µM, replicate R4): 84.9%; Average inhibition female (%) ([2]; 2µM, average of replicates): -2.2%; % inhibition female (individual replicates) R1 ([2]; 2µM, replicate R1): -7.2%; % inhibition female (individual replicates) R3 ([2]; 2µM, replicate R3): 6.2%; % inhibition female (individual replicates) R4 ([2]; 2µM, replicate R4): -11.5%
CN1CCC(N2CCN(Cc3cccc(-c4ccc(-c5nc6cc(C(F)(F)F)ccc6[nH]5)cc4)c3)CC2)CC1.O=C(O)C(F)(F)F [TCMDC-133842]			3.46	4	1.63	1	5.34 µM	1540 nM											Average inhibition male (%) [1, 13]: 86.6%; % inhibition male (individual replicates) R1 ([1]; PfDGFA at 2µM, replicate R1): 86.4%; % inhibition male (individual replicates) R3 ([1]; PfDGFA at 2µM, replicate R3): 71.8%; % inhibition male (individual replicates) R4 ([1]; PfDGFA at 2µM, replicate R4): 92.9%; Average inhibition female (%) [2, 13]: 30.2%; % inhibition female (individual replicates) R1 ([2]; PfDGFA at 2µM, replicate R1): 16.8%; % inhibition female (individual replicates) R3 ([2]; PfDGFA at 2µM, replicate R3): 18.6%; % inhibition female (individual replicates) R4 ([2]; PfDGFA at 2µM, replicate R4): 31.1%; IC50 [2]: 3270 nM
Fc1ccc2[nH]c(-c3ccc(-c4ccc(CN5CCC(CCN6CCCCC6)CC5)cc4)s3)nc2c1.O=C(O)C(F)(F)F [TCMDC-133932]			3.55	4	1.07	1	4.83 µM	1360 nM											Average inhibition male (%) [1, 13]: 85.6%; % inhibition male (individual replicates) R1 ([1]; PfDGFA at 2µM, replicate R1): 90.7%; % inhibition male (individual replicates) R3 ([1]; PfDGFA at 2µM, replicate R3): 68.9%; % inhibition male (individual replicates) R4 ([1]; PfDGFA at 2µM, replicate R4): 86.9%; Average inhibition female (%) [2, 13]: 38.7%; % inhibition female (individual replicates) R1 ([2]; PfDGFA at 2µM, replicate R1): 37.3%; % inhibition female (individual replicates) R3 ([2]; PfDGFA at 2µM, replicate R3): 32.0%; % inhibition female (individual replicates) R4 ([2]; PfDGFA at 2µM, replicate R4): 25.9%; IC50 [2]: 4500 nM
Cl.NC(=O)c1ccccc1Nc1nc(Nc2cccc(N3CCN(CCO)CC3)c2)ncc1Cl [TCMDC-134114]	470 nM	> 10000 nM	28.08		1.31		13.07 µM		96.1%	97.9%	97.4%	96.2%	92.9%	4.2%	11.2%	7.4%	-5%	3.4%	
Cc1cc(Nc2ncc(C#N)c(Nc3ccccc3C(N)=O)n2)ccc1N1CCN(C)CC1.Cl [TCMDC-134115]	40 nM	7400 nM	28.49		0.14		1.03 µM		96.2%	97.3%	97.1%	88.6%	102%	-14.3%	-7.3%	-13.1%	-26.9%	-10%	
CN1CCC(NCc2ccc(-c3cnc(NCc4ccccc4)nc3)cc2)CC1.O=C(O)C(F)(F)F [TCMDC-134120]	960 nM	6570 nM	11.62	4	1.69	1	11.1 µM												inhibition at 2 µM [1, 4]: 86.5%; inhibition at 2 µM [1, 5]: 83.5%; inhibition at 2 µM [1, 6]: 87.5%; inhibition at 2 µM [1, 24]: 86.1%; inhibition at 2 µM [1, 7]: 88.9%; inhibition at 2 µM [2, 8]: 24.9%; inhibition at 2 µM [2, 9]: 24.7%; inhibition at 2 µM [2, 10]: 16.8%; inhibition at 2 µM [2, 11]: -0.09%; inhibition at 2 µM [2, 12]: 58.4%

Now from value to compound, other results behind:

IC50 ([1]; Plasmodium falciparum)	IC50 ([2]; Plasmodium falciparum)	Compound	Selectivity Ratio M [1]	HitlevelM ([1]; 2µM)	Selectivity ratio F [2]	HitlevelF ([2]; 2µM)	Tox50 [3]	IC50 [1]	inhibition at 2 µM [1, 14]	inhibition at 2 µM [1, 15]	inhibition at 2 µM [1, 16]	inhibition at 2 µM [1, 17]	inhibition at 2 µM [1, 18]	inhibition at 2 µM [2, 19]	inhibition at 2 µM [2, 20]	inhibition at 2 µM [2, 21]	inhibition at 2 µM [2, 22]	inhibition at 2 µM [2, 23]	further results
30 nM	9170 nM	CN1CCN(c2ccc(Nc3ncc(C#N)c(Nc4ccccc4C(N)=O)n3)cc2)CC1.Cl [TCMDC-134116]	137.11		0.4		3.71 µM		100%	98.7%	101%	97.3%	104%	-1.7%	7.5%	3%	-11.3%	-6.1%	
100 nM	> 10000 nM	COc1ccc(Nc2ncc(C#N)c(Nc3ccccc3C(N)=O)n2)cc1N1CCN(C)CC1.Cl [TCMDC-134117]	100.74		0.96		9.58 µM		97.4%	98.2%	100%	93.5%	98%	-4.3%	-4.1%	-6.5%	-13.1%	6.5%	
250 nM	> 10000 nM	CNC(=O)c1ccccc1Nc1nc(Nc2ccc(N3CCN(C)CC3)nc2)ncc1C.Cl [TCMDC-134123]	14.02		0.34		3.44 µM		96.1%	93.9%	95.8%		98.7%	0.025%	-2.2%	-9.9%	9.7%	2.5%	
180 nM	> 10000 nM	CNC(=O)c1ccccc1Nc1nc(Nc2ccc(N3CCOCC3)cc2)ncc1Cl.Cl [TCMDC-134144]	4.53	4	0.08	0	0.82 µM												inhibition at 2 µM [1, 4]: 88.6%; inhibition at 2 µM [1, 5]: 93.6%; inhibition at 2 µM [1, 6]: 91.9%; inhibition at 2 µM [1, 24]: 82.6%; inhibition at 2 µM [1, 7]: 86.2%; inhibition at 2 µM [2, 8]: 8.6%; inhibition at 2 µM [2, 9]: 12.4%; inhibition at 2 µM [2, 10]: 10.5%; inhibition at 2 µM [2, 11]: 10.7%; inhibition at 2 µM [2, 12]: 0.76%
